Experimental data taken from ChEMBL document CHEMBL1201862, “PubChem BioAssay data set” (2004).
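A five-concentration, 48-hour dose response in 96-well plates underlies each endpoint, interpolated linearly between surrounding concentrations. GI50 is the concentration that inhibits growth by half.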 Activity calls are given as the source filed them. Rule as the data show it: active = GI50 up to about 1.1 µM and inactive = higher.

Assays:
Test in all cases: growth of human tumour cells (NCI), 48 h
[1] = test system: SK-MEL-5
[2] = test system: SK-MEL-28
[3] = test system: SK-OV-3
[4] = test system: MDA-MB-435
[5] = test system: CCRF-CEM
[6] = test system: T47D
[7] = test system: 786-0
[8] = test system: MDA-N
[9] = test system: A549
[10] = test system: ACHN
[11] = test system: A498
[12] = test system: NCI-H23
[13] = test system: U-251
[14] = test system: SNB-19
[15] = test system: M14
[16] = test system: OVCAR-4
[17] = test system: EKVX
[18] = test system: HT-29
[19] = test system: PC-3
[20] = test system: HL-60

Measured: GI50

CC1(C)O[C@@H](CP(c2ccccc2)c2ccccc2)[C@H](CP(c2ccccc2)c2ccccc2)O1
inactive: [1] 5.74 µM | [2] 12.3 µM | [3] 15.2 µM | [4] 6.03 µM | [5] 2.4 µM | [6] 3.76 µM | [7] 6.15 µM | [8] 3.05 µM | [9] 2.93 µM | [10] 15.2 µM | [11] 12.6 µM | [12] 1.53 µM | [13] 3.66 µM | [14] 4.05 µM | [15] 5.94 µM | [16] 9.08 µM | [17] 6.38 µM
active: [18] 0.675 µM

CC(C)=C1C(=O)C[C@]2(C)C[C@H]3O[C@]3(C)CC[C@@H]3O[C@@]3(C)CC[C@@H]12
inactive: [2] > 50 µM | [3] > 50 µM | [4] > 50 µM | [5] > 50 µM | [6] > 50 µM | [7] > 50 µM | [9] > 50 µM | [10] > 50 µM | [11] > 50 µM | [12] > 50 µM | [13] > 50 µM | [19] > 50 µM | [14] > 50 µM | [20] > 50 µM | [15] > 50 µM | [16] > 50 µM | [17] > 50 µM | [18] > 50 µM

O=P(O)(O)OC1O[C@H](CO)[C@H](O)[C@H](O)[C@H]1O (some centres undefined)
inactive: [1] > 100 µM | [2] > 100 µM | [3] > 100 µM | [4] > 100 µM | [5] > 100 µM | [6] > 100 µM | [7] > 100 µM | [8] > 100 µM | [9] > 100 µM | [10] > 100 µM | [11] > 100 µM | [12] > 100 µM | [13] > 100 µM | [14] > 100 µM | [20] > 100 µM | [15] > 100 µM | [16] > 100 µM | [17] > 100 µM | [18] > 100 µM

Cn1c2c(c3ccccc31)CC1c3c(c4ccccc4n3C)CC21 (centres undefined)
inactive: [1] > 100 µM | [2] > 100 µM | [3] > 100 µM | [4] > 100 µM | [5] > 100 µM | [6] > 100 µM | [7] > 100 µM | [8] > 100 µM | [9] > 100 µM | [10] > 100 µM | [12] > 100 µM | [13] > 100 µM | [19] > 100 µM | [14] > 100 µM | [20] > 100 µM | [15] > 100 µM | [16] > 100 µM | [17] > 100 µM | [18] > 100 µM

Cc1ccc(S(=O)(=O)NC(=O)NC(CC(N)=O)C(=O)O)cc1 (centres undefined)
inactive: [1] > 100 µM | [2] > 100 µM | [3] > 100 µM | [5] > 100 µM | [6] > 100 µM | [7] > 100 µM | [8] > 100 µM | [9] > 100 µM | [10] > 100 µM | [12] > 100 µM | [13] > 100 µM | [19] > 100 µM | [14] > 100 µM | [20] > 100 µM | [15] > 100 µM | [16] > 100 µM | [18] > 100 µM

COC(=O)c1nc2c(C)c(O)c(O)c([C@H](C)CCC=C(C)C)c2o1
inactive: [1] 13 µM | [2] 32.7 µM | [3] 40.6 µM | [4] 26.8 µM | [5] 2.64 µM | [6] 39.8 µM | [7] 18.6 µM | [9] 27.9 µM | [10] 22.6 µM | [11] 21.7 µM | [12] 28.1 µM | [13] 28.5 µM | [19] 26.6 µM | [14] 38.5 µM | [20] 16.7 µM | [15] 37.3 µM | [16] 30.1 µM | [17] 29.7 µM | [18] 19.5 µM

COC(=O)C(Cc1ccccc1)OC(=O)C(N)CC(=O)O (centres undefined)
inactive: [1] > 100 µM | [2] > 100 µM | [3] > 100 µM | [4] 17.1 µM | [6] > 100 µM | [7] > 100 µM | [8] > 100 µM | [9] > 100 µM | [10] > 100 µM | [12] 5.11 µM | [19] > 100 µM | [14] > 100 µM | [15] > 100 µM | [17] > 100 µM | [18] > 100 µM

O=S1(=O)c2ccccc2NC(=S)CC1c1ccccc1 (centres undefined)
inactive: [1] > 100 µM | [2] > 100 µM | [3] > 100 µM | [4] > 100 µM | [5] > 100 µM | [6] > 100 µM | [7] > 100 µM | [8] > 100 µM | [9] > 100 µM | [10] > 100 µM | [12] > 100 µM | [13] > 100 µM | [19] > 100 µM | [14] > 100 µM | [20] > 100 µM | [15] > 100 µM | [16] > 100 µM | [17] > 100 µM | [18] > 100 µM
